Molecular target: T1, cyclo-oxygenase (Bos taurus, UniProt O62664)
T1 construct: formed by bovine thrombocytes following addition of calcium ionophore; endogenous in cells; host or cells: thrombocytes isolated from the supernatant of centrifuged bovine blood
T1 sequence (O62664 25-600): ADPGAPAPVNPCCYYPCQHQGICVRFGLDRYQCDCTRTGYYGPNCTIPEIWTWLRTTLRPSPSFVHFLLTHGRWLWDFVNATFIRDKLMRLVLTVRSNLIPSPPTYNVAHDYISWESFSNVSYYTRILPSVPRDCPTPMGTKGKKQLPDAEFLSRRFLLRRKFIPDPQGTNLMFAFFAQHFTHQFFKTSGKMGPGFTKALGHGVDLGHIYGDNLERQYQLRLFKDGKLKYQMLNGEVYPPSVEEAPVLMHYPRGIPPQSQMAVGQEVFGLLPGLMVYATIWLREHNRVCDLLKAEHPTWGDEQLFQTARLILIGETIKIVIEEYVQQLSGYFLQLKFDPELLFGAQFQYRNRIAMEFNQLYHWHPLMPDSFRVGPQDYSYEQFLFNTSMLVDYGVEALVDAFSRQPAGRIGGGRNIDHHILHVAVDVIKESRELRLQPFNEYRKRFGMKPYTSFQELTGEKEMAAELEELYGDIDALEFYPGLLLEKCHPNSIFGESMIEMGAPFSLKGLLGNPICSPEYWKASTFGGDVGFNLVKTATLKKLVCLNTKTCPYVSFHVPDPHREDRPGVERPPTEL
Assay: inhibition of cyclo-oxygenase (12-HHT or prostaglandin E2 formed by calcium-ionophore stimulated bovine thrombocytes)
Assay type: cell-based
Conditions: Table 1, read-out: INHIBITION % Cyclooxygenase
Method: The effectiveness of the compounds of the invention can be determined by means of the inhibition of 5-lipoxygenase or of cyclo-oxygenase. The research was carried out as follows:
In this test the 12-HHT amount of 12-hydroxyheptadecatriene acid or prostaglandin E2 amount formed by bovine thrombocytes following addition of calcium ionophore is determined by uv detection following HPLC separation. Following centrifuging of the bovine blood, the thrombocytes are isolated from the surnatant. The enzyme reaction and the isolation of the formed metabolites take place as when determining the 5-lipoxygenase inhibition, however the incubation time was one minute. The detection of 12 HHT following HPLC separation takes place at 232 nm.
Tables 1 and 2 list the test results for the compounds of the invention, The test substances were at concentrations of 10 μM.

Compared with O=C(O)CCc1c(-c2ccc(Oc3ccccc3)cc2)c(-c2ccccc2)c2n1CCC2, O=C(O)Cc1c(-c2ccccc2)c(-c2ccccc2)c2n1CCC2 [Phenyl, Phenyl, CH2 CO2 H, H, H] is higher in inhibition at 10 µM: 70% for the first, 91% for the second.

Going from CC1(C)Cc2c(-c3ccccc3)c(-c3ccccc3)c(CCC(=O)O)n2C1 [Phenyl, Phenyl, (CH2)2 CO2 H, CH3, CH3] to CC1(C)Cc2c(-c3ccccc3)c(-c3ccccc3)c(CC(=O)O)n2C1 [Phenyl, Phenyl, CH2 CO2 H, CH3, CH3, (2,2-dimethyl-6,7-diphenyl-2,3-dihydro-1H-pyrrolizine-5-yl)-acetic acid], the inhibition at 10 µM rises from 97% to 99%.

Molecular target: T2, 5-lipoxygenase (Bos taurus, UniProt F1MQ78)
T2 construct: The source for 5-lipoxygenase were bovine granulocytes; endogenous in cells; host or cells: granulocytes isolated from EDTA-anticoagulated bovine blood
T2 sequence (F1MQ78 1-674): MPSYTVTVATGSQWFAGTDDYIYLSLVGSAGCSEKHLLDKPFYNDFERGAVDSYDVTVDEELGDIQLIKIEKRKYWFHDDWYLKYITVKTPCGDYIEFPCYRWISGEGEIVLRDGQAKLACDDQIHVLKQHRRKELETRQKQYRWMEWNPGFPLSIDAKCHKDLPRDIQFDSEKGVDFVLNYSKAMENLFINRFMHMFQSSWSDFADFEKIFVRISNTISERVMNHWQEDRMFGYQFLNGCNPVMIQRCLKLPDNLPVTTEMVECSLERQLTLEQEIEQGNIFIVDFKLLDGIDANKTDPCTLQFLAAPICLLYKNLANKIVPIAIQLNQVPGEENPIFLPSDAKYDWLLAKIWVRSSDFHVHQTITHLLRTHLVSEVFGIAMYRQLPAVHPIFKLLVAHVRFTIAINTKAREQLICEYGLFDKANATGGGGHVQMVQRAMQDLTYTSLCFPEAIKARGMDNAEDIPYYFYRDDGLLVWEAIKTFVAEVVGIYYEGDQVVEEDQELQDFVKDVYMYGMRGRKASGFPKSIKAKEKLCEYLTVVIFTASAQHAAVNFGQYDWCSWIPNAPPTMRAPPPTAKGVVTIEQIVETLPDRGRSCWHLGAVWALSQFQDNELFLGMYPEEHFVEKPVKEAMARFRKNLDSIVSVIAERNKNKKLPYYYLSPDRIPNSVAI
Assay: inhibition of 5-lipoxygenase (LTB4 formed by calcium-ionophore stimulated bovine granulocytes)
Assay type: cell-based
Conditions: Table 1, 3,3 μM

For CC1(C)Cc2c(-c3ccccc3)c(-c3ccc(Oc4ccccc4)cc3)c(CCC(=O)O)n2C1 [3-(2,2-dimethyl-6-(4-phenoxyphenyl)-7-phenyl-2,3-dihydro-1H-pyrrolizine-5-yl) propionic acid], the inhibition at 3 µM was 98%.

Molecular target: T2, 5-lipoxygenase
Assay: as above
Assay type: cell-based
Conditions: Table 1
Method: The effectiveness of the compounds of the invention can be determined by means of the inhibition of 5-lipoxygenase or of cyclo-oxygenase. The research was carried out as follows: The source for 5-lipoxygenase were bovine granulocytes which can form leucotrienes just as human granulocytes do. By stimulation with calcium-ionophore (see BIOCHEM. BIOPHYS. ACTA 1984, 795, pp 499-503), mainly LTC4 (leucotriene C4) and LTB4 (leucotriene B4) are formed from endogenous arachidonic acid. The isolation of the granulocytes and the implementation of the enzyme reaction are conventional (see BIOCHEM. BIOPHYS. ACTA 1984, 795 pp 499-503). The blood protected against clotting by EDTA first is centrifuged for that purposed and the thrombotic excess is removed. Following lysis of the erythrocytes with water the lymphocytes and monocytes are separated from the granulocytes by means of a Ficoll gradient. The granulocytes are set to a specific cell number. The enzyme reaction is then begun in the presence or absence of the test substances following the addition of Ca^2+ with calcium ionophore. The synthesis of the leucotrienes is stopped after 5 minutes by adding a mixture of methanol and acetonitrile containing PGB2 as the internal standard and NDGA as the anti-oxidant. Next the samples are diluted in water and processed in the manner described in J. CHROMATOGR. […], 378, pp 208-214. LTB4 is measured at the absorption maximum at 270 nm. The arachidonic acid metabolites are observed present in this research in approximately quantitative manner. Tables 1 and 2 list the test results for the compounds of the invention, The test substances were at concentrations of 10 μM.

First: O=C(O)CCc1c(-c2cccc(Cl)c2)c(-c2ccccc2)c2n1CCC2
Second: O=C(O)CCc1c(-c2ccc(Cl)cc2)c(-c2ccccc2)c2n1CCC2
The inhibition at 10 µM of the first is lower: 89% for the first, 98% for the second.

Going from COc1ccc(-c2c(-c3ccccc3)c3n(c2CCC(=O)O)CCC3)cc1 to Cc1ccc(-c2c(-c3ccccc3)c3n(c2CCC(=O)O)CCC3)cc1 [Phenyl, p-Tolyl, (CH2)2 CO2 H, H, H], the inhibition at 10 µM rises from 91% to 92%.

Compared with O=C(O)CCc1c(-c2ccc(Oc3ccccc3)cc2)c(-c2ccccc2)c2n1CCC2, O=C(O)CCc1c(-c2cccc3ccccc23)c(-c2ccccc2)c2n1CCC2 [Phenyl, α-naphthyl, (CH2)2 CO2 H, H, H] is lower in inhibition at 10 µM: 98% for the first, 94% for the second.

Compared with CC1(C)Cc2c(CCC(=O)O)c(-c3ccccc3)c(-c3ccccc3)n2C1 [(CH2)2 CO2 H, Phenyl, Phenyl, CH3, CH3], CC1(C)Cc2c(CCCCCC(=O)O)c(-c3ccccc3)c(-c3ccccc3)n2C1 [(CH2)5 CO2 H, Phenyl, Phenyl, CH3, CH3] is higher in inhibition at 10 µM: 93% for the first, 96% for the second.

O=C(O)CCCCc1c(-c2ccccc2)c(-c2ccccc2)n2c1CCC2 [(CH2)4 CO2 H, Phenyl, Phenyl, H, H] and O=C(O)CCCCCc1c(-c2ccccc2)c(-c2ccccc2)n2c1CCC2 [(CH2)5 CO2 H, Phenyl, Phenyl, H, H] are the same in inhibition at 10 µM: 86% for the first, 86% for the second.

Compared with CC1(C)Cc2c(C=CC(=O)O)c(-c3ccccc3)c(-c3ccccc3)n2C1 [CHCHCO2 H, Phenyl, Phenyl, CH3, CH3], CC1(C)Cc2c(-c3ccccc3)c(-c3ccccc3)c(CC(=O)O)n2C1 [Phenyl, Phenyl, CH2 CO2 H, CH3, CH3, (2,2-dimethyl-6,7-diphenyl-2,3-dihydro-1H-pyrrolizine-5-yl)-acetic acid] is higher in inhibition at 10 µM: 91% for the first, 94% for the second.

Going from O=C(O)CCCCc1c(-c2ccccc2)c2n(c1-c1ccccc1)CCC2 [Phenyl, (CH2)4 CO2 H, Phenyl, H, H] to O=C(O)CCCCCc1c(-c2ccccc2)c2n(c1-c1ccccc1)CCC2 [Phenyl, (CH2)5 CO2 H, Phenyl, H, H], the inhibition at 10 µM falls from 82% to 80%.

Going from CCCCCCc1c(-c2ccccc2)c2n(c1C=CC(=O)O)CCC2 [Phenyl, C6 H13, CHCHCO2 H, H, H, 3-(6-(n-HEXYL)-7-PHENYL-2,3-DIHYDRO-1h-PYRROLIZINE-5-YL)-ACRYLIC ACID] to O=C(O)/C=C/c1c(-c2ccccc2)c(-c2ccccc2)c2n1CCC2 [Phenyl, Phenyl, CHCHCO2 H, H, H], the inhibition at 10 µM falls from 82% to 80%.

Compound CC1(C)Cc2c(-c3ccccc3)c(-c3ccccc3)c(CCC(=O)O)n2C1 [Phenyl, Phenyl, (CH2)2 CO2 H, CH3, CH3] has an inhibition at 10 µM of 91%.

Same assay, conditions: Table 2

Going from Cc1c(-c2ccccc2)c(-c2ccccc2)c(CCC(=O)O)n1CC(C)(C)C to CCCCn1c(C)c(-c2ccccc2)c(-c2ccccc2)c1CCC(=O)O, the inhibition at 10 µM falls from 97% to 94%.

CCCCCn1c(C)c(-c2ccccc2)c(-c2ccccc2)c1CCC(=O)O and CCCCCCn1c(C)c(-c2ccccc2)c(-c2ccccc2)c1CCC(=O)O are the same in inhibition at 10 µM: 99% for the first, 99% for the second.

Source: patent US5260451A, “Substituted pyrrole compounds and use thereof in pharmaceutical compositions” (priority 1989, dated 1993)
